The text below walks through data of US20250082630A1, “METHODS OF TREATING BRAIN TUMOURS AND NEUROBLASTOMAS” (AstraZeneca AB, priority 2021, published 2025).

Read-outs that look alike come from different tables or passages of the source. Some results are limits rather than exact numbers.

Series [1] has as its target PARP6 (Homo sapiens (Human), UniProt Q2NL67). Put plainly: PARP fluorescence anisotropy binding assay, PARP6. The procedure: Recombinant full length GST tagged PARP6 protein was diluted to 160 nM with 50 mM Tris pH 8, 0.001% Triton X100, 10 mM MgCl2, 150 mM NaCl and incubated for four hours with an equivalent volume of 6 nM fluorescent probe diluted with 50 mM Tris pH 8, 0.001% Triton X100, 10 mM MgCI2, 150 mM NaCl. The final DMSO concentration of the probe was kept below 1% (v/v).
Fluorescence anisotropy of the probe when bound to the proteins was measured using a BMG Pherastar FSX® in the presence of test compounds or solvent control and the effect on anisotropy determined. % inhibition values for different test compound concentrations were calculated and fitted to a four parameter logistic plot in order to determine the IC50 value. Where necessary, the compound K, can be determined from the IC50 value using a Munson Rodbard equation defined in Anal Biochem. 1980 Sep. 1; 107(1):220-39 and is based on the known KD of the probe binding to the relevant PARP protein

Series [2] deals with BRCA2 (−/−) DLD1 cells. The series can be described thus: PARP proliferation assay (7 day compound dosing), BRCA2 (−/−) DLD1. Conditions: read-out: BRCA2 −/− DLD-1 prolif. 7 d IC50. The class given is cell-based. The procedure:
(§1) DLD1 and BRCA2 (−/−) DLD1 cells were harvested to a density of 5000 cells/ml and 2.5E4 cells/ml respectively in complete media, 40 μL/well seeded into 384-well plates (Greiner, Kremsmunster, Austria; 781090) using a Multidrop Combi then incubated at 37° C., 5% CO2 overnight. Next day (Day 1) using a Multidrop Combi add sytox green (5ul, 2 uM) and saponin (10 ul, 0.25% stock) to a day 0 plate, seal the plate using a black adhesive lid and incubate for >3 h at it. Cells were imaged using Cell Insight (Thermo Fisher) fitted with a 4x objective. Test compounds are added using an Echo 555 and placed in incubator maintained at 37° C., 5% CO2 and incubated for 7 days. On Day 8 add sytox green (5ul, 2 uM) and then saponin (10 ul, 0.25% stock) to plates, seal the plate using a black adhesive lid and incubate for >3 h at it. Read all cells on the Cell Insight with 4× Objective. The rate of proliferation is determined in Genedata by assessing the total cell number output from the Cell Insight for Day 0 and Day 8 plates.

Series [3] addresses PARP3 (Homo sapiens (Human), UniProt Q9Y6F1). Put plainly: PARP fluorescence anisotropy binding assay, PARP3. In general terms: Polarisation of emitted light reports the rotation of a fluorescent probe.
Protocol: Recombinant full length PARP3 protein was diluted to 100 nM with 50 mM Tris pH 8, 0.001% Triton X100, 10 mM MgCl2, 150 mM NaCl and incubated for four hours with an equivalent volume of 6 nM fluorescent probe diluted with 50 mM Tris pH 8, 0.001% Triton X100, 10 mM MgCl2, 150 mM NaCl. The final DMSO concentration of the probe was kept below 1% (v/v).
Series [4] concerns the target PARP1 (Homo sapiens (Human), UniProt P09874). Put plainly: PARP fluorescence anisotropy binding assay, PARP1.
Series [5] addresses T1, hERG (Homo sapiens (Human), UniProt Q12809). The series can be described thus: hERG IC50. (In general: The hERG channel carries a current that helps repolarise heart muscle cells.)
The target in series [6] is PARP5a (Homo sapiens (Human), UniProt O95271). The series can be described thus: PARP fluorescence anisotropy binding assay, PARP5a.
Protocol: Recombinant PARP5a binding domain was diluted to 160 nM with 50 mM Tris pH 8, 0.001% Triton X100, 10 mM MgCl2, 150 mM NaCl and incubated for four hours with an equivalent volume of 6 nM fluorescent probe diluted with 50 mM Tris pH 8, 0.001% Triton X100, 10 mM MgCl2, 150 mM NaCl. The final DMSO concentration of the probe was kept below 1% (v/v).
Series [7] deals with MDCKII cells expressing MDR1 and BCRP. The series can be described thus: In vitro human transporter efflux (MDCK-MDR1-BCRP). Conditions: Papp(B to A)/Papp(A to B), 90-min incubation.
Protocol: (§2) MDCKII cells expressing MDR1 and BCRP were seeded onto polyethylene membranes in 96-well Transwell insert systems at a density to form a confluent cell monolayer. […] The final percent volume of the organic solvent was less than 1%. Permeation of the test compounds from A to B direction and from B to A direction was determined over a 90-min incubation at 37° C. and 5% CO2 with a relative humidity of 95%. At the end of the incubation, samples from the apical and basolateral side were taken and then precipitated with cold acetonitrile containing internal standard. After centrifugation at 4000 rpm, the supernatant was diluted with 0.1% formic acid aqueous solution and quantified by LC-MS/MS. The integrity of the cell monolayers was confirmed by using the marker Lucifer yellow.
(§3) The permeability coefficient (1×10-6 cm/s) was calculated using the following equation
(§4) (1) The Efflux Ratio was Calculated Using the Following Equation
Efflux ratio=Papp(B to A)/Papp(A to B)
(§5) (2) where dCr/dt is the cumulative concentration of the compound in the receiver chamber as a function of time (in μM/s); Vr is the solution volume in the receiver chamber (0.1 ml on the apical side and 0.3 ml on the basolateral side); A is the surface area for the transport, that is, 0.11 cm2 for the area of the monolayer; and C0 is the initial concentration in the donor chamber (in μM).
Series [8] deals with PARP2 (Homo sapiens (Human), UniProt Q9UGN5). The series can be described thus: PARP fluorescence anisotropy binding assay, PARP2. In short, it runs like this: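 Recombinant full-length human PARP2 (6 nM before mixing) incubated 4 h with equal volume of 2 nM fluorescent probe in 50 mM Tris pH 8, 10 mM MgCl2, 150 mM NaCl, 0.001% Triton X100. Compound displacement measured as change in probe fluorescence anisotropy; IC50 from four-parameter logistic fit.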

Series [9] concerns DLD1 cells. The series can be described thus: PARP proliferation assay (7 day compound dosing), WT DLD1. The class given is cell-based. Conditions: read-out: WT DLD-1 prolif. 7 d IC50. How it is done: as §1
The subject of series [10] is MDCKII cells expressing MDR1 and BCRP.
Protocol: as §2, §3, §4
Efflux ratio=Papp(B to A)/Papp(A to B)
as §5
In series [11] the target is T1, hERG.
The conditions of series [12]: 30 mg/m^2 per day, days 1, 2 and 3 every 21 days, in combination with radiation therapy; cited from earlier work.

Chain of PARP2 (Q9UGN5 whole entry): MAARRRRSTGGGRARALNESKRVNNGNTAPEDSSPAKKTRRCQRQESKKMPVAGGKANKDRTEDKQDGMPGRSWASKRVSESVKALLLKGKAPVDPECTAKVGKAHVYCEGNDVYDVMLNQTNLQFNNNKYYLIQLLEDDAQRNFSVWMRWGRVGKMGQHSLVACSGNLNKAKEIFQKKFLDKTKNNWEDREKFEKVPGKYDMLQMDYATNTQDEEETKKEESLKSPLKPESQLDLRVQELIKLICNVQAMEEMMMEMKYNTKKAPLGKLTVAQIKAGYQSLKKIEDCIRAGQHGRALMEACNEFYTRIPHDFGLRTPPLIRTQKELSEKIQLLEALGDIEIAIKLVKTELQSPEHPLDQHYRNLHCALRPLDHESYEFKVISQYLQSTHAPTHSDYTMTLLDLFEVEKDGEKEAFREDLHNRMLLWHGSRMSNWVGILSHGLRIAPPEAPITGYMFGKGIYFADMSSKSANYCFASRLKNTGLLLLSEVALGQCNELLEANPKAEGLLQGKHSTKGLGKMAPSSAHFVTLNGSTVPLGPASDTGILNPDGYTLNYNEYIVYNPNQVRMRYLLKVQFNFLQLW
T1 sequence (Q12809 whole entry): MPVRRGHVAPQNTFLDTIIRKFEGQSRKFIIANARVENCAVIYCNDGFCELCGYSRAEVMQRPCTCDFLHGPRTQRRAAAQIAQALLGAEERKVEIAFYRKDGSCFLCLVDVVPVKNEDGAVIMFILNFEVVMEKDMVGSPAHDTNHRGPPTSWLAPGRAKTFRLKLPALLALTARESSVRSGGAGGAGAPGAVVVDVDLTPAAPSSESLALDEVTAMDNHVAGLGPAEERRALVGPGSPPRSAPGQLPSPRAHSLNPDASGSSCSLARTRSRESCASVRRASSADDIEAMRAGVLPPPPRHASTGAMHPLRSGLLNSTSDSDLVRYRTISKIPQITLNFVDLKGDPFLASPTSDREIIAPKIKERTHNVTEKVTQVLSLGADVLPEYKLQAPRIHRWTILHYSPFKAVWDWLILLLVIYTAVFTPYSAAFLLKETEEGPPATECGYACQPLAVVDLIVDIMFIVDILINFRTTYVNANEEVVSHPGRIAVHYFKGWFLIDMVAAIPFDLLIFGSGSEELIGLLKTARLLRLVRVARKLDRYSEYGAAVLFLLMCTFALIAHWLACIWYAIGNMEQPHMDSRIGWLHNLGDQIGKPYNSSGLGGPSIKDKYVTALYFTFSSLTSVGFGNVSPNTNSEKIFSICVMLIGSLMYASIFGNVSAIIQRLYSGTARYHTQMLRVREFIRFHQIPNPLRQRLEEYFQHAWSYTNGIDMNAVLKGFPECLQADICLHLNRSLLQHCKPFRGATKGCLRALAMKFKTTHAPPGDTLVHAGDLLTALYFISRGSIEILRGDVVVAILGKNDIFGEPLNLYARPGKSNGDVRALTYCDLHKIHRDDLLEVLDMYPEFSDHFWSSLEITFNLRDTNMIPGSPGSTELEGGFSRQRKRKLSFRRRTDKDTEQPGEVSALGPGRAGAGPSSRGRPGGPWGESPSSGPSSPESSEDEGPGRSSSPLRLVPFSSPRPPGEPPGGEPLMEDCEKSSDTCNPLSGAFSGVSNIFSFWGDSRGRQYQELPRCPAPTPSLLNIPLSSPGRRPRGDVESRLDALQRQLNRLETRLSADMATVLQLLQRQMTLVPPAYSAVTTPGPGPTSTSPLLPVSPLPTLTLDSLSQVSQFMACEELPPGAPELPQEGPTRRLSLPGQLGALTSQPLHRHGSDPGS
Chain of PARP5a (O95271 1112-1317): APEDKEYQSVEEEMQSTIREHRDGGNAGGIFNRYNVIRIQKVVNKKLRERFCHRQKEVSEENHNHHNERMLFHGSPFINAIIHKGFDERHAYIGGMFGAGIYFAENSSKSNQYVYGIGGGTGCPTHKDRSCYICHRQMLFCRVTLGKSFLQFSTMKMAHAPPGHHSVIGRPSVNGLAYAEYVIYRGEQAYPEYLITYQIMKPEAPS
Chain of PARP1 (P09874 whole entry): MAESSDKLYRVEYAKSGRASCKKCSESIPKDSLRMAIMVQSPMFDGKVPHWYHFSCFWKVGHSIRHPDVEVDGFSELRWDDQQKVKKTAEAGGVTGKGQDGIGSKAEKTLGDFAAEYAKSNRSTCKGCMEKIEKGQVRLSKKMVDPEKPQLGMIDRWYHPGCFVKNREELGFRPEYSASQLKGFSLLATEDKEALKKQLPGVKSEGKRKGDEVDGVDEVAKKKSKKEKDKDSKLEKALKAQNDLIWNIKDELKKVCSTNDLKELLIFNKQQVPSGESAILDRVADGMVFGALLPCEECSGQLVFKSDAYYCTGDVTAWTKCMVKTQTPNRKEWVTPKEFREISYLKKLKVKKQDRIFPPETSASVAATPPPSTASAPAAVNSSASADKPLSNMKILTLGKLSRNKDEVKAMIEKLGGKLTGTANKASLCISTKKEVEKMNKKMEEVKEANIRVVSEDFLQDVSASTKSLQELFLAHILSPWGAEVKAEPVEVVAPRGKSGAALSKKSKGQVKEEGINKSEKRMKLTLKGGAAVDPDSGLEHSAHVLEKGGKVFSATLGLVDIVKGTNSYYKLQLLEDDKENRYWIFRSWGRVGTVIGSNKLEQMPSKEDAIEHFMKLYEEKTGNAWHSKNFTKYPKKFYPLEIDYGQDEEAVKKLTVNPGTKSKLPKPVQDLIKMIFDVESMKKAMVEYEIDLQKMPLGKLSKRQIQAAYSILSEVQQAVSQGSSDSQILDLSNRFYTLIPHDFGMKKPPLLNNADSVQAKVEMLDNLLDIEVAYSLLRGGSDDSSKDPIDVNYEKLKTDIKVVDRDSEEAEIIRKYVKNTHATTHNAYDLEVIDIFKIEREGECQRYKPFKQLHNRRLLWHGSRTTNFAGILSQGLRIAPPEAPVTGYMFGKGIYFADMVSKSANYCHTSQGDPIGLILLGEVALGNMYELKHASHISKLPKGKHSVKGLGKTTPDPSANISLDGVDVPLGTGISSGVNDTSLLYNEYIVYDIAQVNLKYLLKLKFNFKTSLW
Chain of PARP3 (Q9Y6F1 whole entry): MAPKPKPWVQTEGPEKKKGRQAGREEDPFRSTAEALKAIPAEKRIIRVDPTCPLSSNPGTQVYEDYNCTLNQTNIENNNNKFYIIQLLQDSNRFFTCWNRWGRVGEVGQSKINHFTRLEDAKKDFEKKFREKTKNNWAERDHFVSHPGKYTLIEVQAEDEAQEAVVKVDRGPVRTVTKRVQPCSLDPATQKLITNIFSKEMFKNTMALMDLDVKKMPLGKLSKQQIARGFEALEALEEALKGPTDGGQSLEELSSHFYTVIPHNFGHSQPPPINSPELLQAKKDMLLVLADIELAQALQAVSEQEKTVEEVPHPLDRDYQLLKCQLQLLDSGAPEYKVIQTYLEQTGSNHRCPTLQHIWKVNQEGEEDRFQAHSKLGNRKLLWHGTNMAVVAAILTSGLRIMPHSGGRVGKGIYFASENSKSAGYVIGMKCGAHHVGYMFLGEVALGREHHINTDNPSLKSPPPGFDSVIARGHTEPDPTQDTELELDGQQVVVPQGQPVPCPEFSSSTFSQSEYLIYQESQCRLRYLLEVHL
Chain of PARP6 (Q2NL67 whole entry): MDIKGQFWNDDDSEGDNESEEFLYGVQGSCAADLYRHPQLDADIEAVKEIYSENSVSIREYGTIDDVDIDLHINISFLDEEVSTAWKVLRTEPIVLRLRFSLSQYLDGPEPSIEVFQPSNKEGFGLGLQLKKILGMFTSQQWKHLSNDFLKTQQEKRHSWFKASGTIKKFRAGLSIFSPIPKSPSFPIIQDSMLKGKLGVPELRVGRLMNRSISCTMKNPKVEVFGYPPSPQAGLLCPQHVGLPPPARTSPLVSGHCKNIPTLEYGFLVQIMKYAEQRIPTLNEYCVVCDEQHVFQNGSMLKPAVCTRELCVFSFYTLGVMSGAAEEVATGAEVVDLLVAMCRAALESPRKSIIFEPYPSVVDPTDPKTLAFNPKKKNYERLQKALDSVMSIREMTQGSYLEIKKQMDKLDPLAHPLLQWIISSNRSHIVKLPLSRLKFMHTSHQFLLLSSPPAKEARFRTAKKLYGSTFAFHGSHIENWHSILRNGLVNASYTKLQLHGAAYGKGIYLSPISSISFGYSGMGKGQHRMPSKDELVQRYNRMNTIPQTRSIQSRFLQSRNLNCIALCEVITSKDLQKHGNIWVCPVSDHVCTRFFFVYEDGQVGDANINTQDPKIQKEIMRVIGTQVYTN

As to `CNC(=O)c1ccc(N2CCN(Cc3ccc4nc([C@H](C)F)c(=O)[nH]c4c3F)CC2)c(F)n1` (single isomer, unassigned) [Example 12, 6-fluoro-5-[4-[[5-fluoro-2-[(1S OR 1R)-1-fluoroethyl]-3-oxo-4H-quinoxalin-6-yl]methyl]piperazin-1-yl]-N-methyl-pyridine-2-carboxamide], the IC50 in series [1] is over 100 µM; in series [2], 8 nM; in series [3], 85 µM; in series [4], 15 nM; in series [5] (read-out: hERG IC50), over 40 µM; in series [6] it was over 100 µM. Further, the “MDCK-MDR1-BCRP Efflux Ratio” value in series [7] came to 4.2.
For the compound `CNC(=O)c1ccc(N2CCN(Cc3ccc4nc([C@H](C)F)c(=O)[nH]c4c3F)CC2)c(F)n1` (single isomer, unassigned) [Example 13, 6-fluoro-5-[4-[[5-fluoro-2-[(1S OR 1R)-1-fluoroethyl]-3-oxo-4H-quinoxalin-6-yl]methyl]piperazin-1-yl]-N-methyl-pyridine-2-carboxamide], the IC50 in [8] is over 100 µM; in series [1], over 100 µM; in series [2], 19 nM; in series [3], 62 µM; in [4], 9 nM; in series [9] it was 22 µM. Moreover, the IC50 is over 40 µM in [11] and over 100 µM in series [6]. In series [10], the “MDCK-MDR1-BCRP Efflux Ratio” value stood at 3.0.
Regarding `CNC(=O)c1ccc(N2CCN(Cc3ccc4nc(C(C)F)c(=O)[nH]c4c3F)CC2)c(C)n1` (single isomer, unassigned) [Example 14, 5-[4-[[5-fluoro-2-[(1S OR 1R)-1-fluoroethyl]-3-oxo-4H-quinoxalin-6-yl]methyl]piperazin-1-yl]-N,6-dimethyl-pyridine-2-carboxamide], the IC50 in series [8] is over 83 µM; in series [1], over 100 µM; in [2], 15 nM; in series [3], 52 µM; in series [4] it was 13 nM; in series [5] (read-out: hERG IC50), over 40 µM. The compound also gave an IC50 in [6] of over 100 µM. Moreover, the “MDCK-MDR1-BCRP Efflux Ratio” value in [7] is given as 3.7.
On to `CNC(=O)c1ccc(N2CCN(Cc3ccc4nc(C(C)F)c(=O)[nH]c4c3F)CC2)c(C)n1` (single isomer, unassigned) [Example 15, 5-[4-[[5-fluoro-2-[(1S OR 1R)-1-fluoroethyl]-3-oxo-4H-quinoxalin-6-yl]methyl]piperazin-1-yl]-N,6-dimethyl-pyridine-2-carboxamide], for which the IC50 in [8] was over 100 µM; in series [1], over 100 µM; in [2] it was 14 nM; in [3], 43 µM; in series [4] it was 12 nM; in series [5] (read-out: hERG IC50), over 38 µM. In series [6], the IC50 was over 100 µM. In addition, in series [7], the “MDCK-MDR1-BCRP Efflux Ratio” value is reported as 3.7.
Regarding `CNC(=O)c1ccc(N2CCN(Cc3ccc4ncc(=O)[nH]c4c3F)CC2)c(Cl)n1` [Example 34, 6-chloro-5-[4-[(5-fluoro-3-oxo-4H-quinoxalin-6-yl)methyl]piperazin-1-yl]-N-methyl-pyridine-2-carboxamide], the IC50 in series [8] was over 100 µM; in series [4], 26 nM; in [5], 29 µM.
Turning to `O[C@H]([C@H](O)[C@@H]1CO1)[C@H]1CO1` [VAL-083, dianhydrogalactitol], the safety and tolerability entry in [12] is “generally safe and well tolerated”.
